# Data reported in article PMC12165799, “Antimicrobial peptide developed with machine learning sequence optimization targets drug resistant Staphylococcus aureus in mice” (The Journal of Clinical Investigation, 2025).
# Tests used:
# [1] = test system: S. aureus MW2 (MRSA) exponential and persister cells; experiment: S. aureus persister cell and time-kill assays (MW2); format: cell-based, Staphylococcus aureus; conditions: approximately 1 × 10^8 CFU, 10 × MIC
# Description: (§1) 305 Minimal inhibitory concentration (MIC) assay
# (§2) We made serial dilutions of 10×
# (§3) We determined the MIC using OD600
# (§4) Accordingly, we added 150 mM NaCl,
# (§5) 319 established protocol (5).
# (§6) 323 aureus VRS1) in PBS. To assess the killing kinetics of CIT-8 in persister cells, we added 1 ml of
# (§7) 324 cell suspension to the wells of a 2-ml deep-well assay block (Cat no. 3960, Corning, NY, USA)
# (§8) We also included ciprofloxacin (at 10 μg/ml) for S.
# (§9) 326 aureus MW2 and linezolid (100 μg/ml) for S. aureus VRS1 as antibiotic controls. Additionally,
# (§10) 327 we included bithionol (at 10 μg/ml) as a positive control, known for its ability to kill stationary
# (§11) 328 phase persister cells (6). We incubated the plates at 37°C, with shaking at 225 rpm. At specific
# (§12) 329 times (0, 15, 30, 60, and 120 min), we collected 10 μl samples, diluted them serially, and then
# (§13) 330 plated them on tryptic soy agar (TSA) (BD Difco, NJ, USA) plates. We incubated the TSA plates
# (§14) 331 for 18 hours at 37°C for colony counting. We performed these experiments in duplicate. As a
# (§15) 332 comparison, we prepared the exponential cells of S. aureus MW2 and VRS1 in PBS and analyzed
# (§16) 333 their killing kinetics in the same manner as described for persister cells.
# [2] = test system: S. aureus VRS1 (VRSA) exponential and persister cells; experiment: S. aureus persister cell and time-kill assays (VRS1); format: cell-based, Staphylococcus aureus; conditions: 10 × MIC
# Description: as §1, §2, §3, §4, §5, §6, §7, §8, §9, §10, §11, §12, §13, §14, §15, §16
# S. aureus MW2 membrane = experiment: SYTOX-based cell membrane permeability assay; parameters: species or system Staphylococcus aureus; conditions: S. aureus MW2, 1 hour; CIT-8 4–32 μg/mL
# Description: 484 min at room temperature in the dark based on a previously established protocol (8). We added 90
# 485 µl of the dye/bacteria mixture to 10 μl of serially diluted 10× peptide concentration in black, 96-
# 486 well plates (Cat. no. 3904, Corning, NY, USA) and incubated the plates for 1 hour at room
# 487 temperature. We measured the fluorescence with excitation and emission wavelengths of 485 nm
# 488 and 525 nm, respectively in endpoint assay mode using a SpectraMax i3x (Molecular Devices,
# 489 CA, USA) fluorescence reader.
# 490 Propidium iodide-based membrane permeability
# 491 We used a propidium iodide (Thermo Fisher Scientific, MA, USA) fluorescence-based
# 492 bacterial permeation assay to establish membrane-oriented interactions with the designed peptides
# 493 based on a previously established protocol (8). We prepared exponential phase S. aureus MW2
# 494 bacteria and diluted to OD600 = 0.4 in PBS. We added PI dye (final concentration = 2 µM) to the
# 495 bacteria in 1:10 serial dilutions in black, 96-well plates (Cat. no. 3904, Corning, NY, USA) and
# 496 incubated the plates for 1 hour at room temperature. We then measured the fluorescence with an
# 497 excitation wavelength of 584 nm and an emission wavelength of 620 nm in endpoint assay mode
# 498 using a SpectraMax i3x (Molecular Devices, CA, USA) fluorescence reader.
# 501 To determine the ATP leakage potential of the peptides, we employed a luciferase-based […]
# S. aureus MW2 = experiment: RNAseq differential gene expression; format: cell-based, Staphylococcus aureus; conditions: 0.5× MIC, 30 min
# Description: 553 For RNAseq studies, we followed the recommended procedure by Novogene (Sacramento,
# 554 CA, USA) (22). In brief, we used exponential cultures of S. aureus MW2 grown in TSB medium
# 555 adjusted to OD600=0.4. We treated 10 ml of the bacterial culture with 0.5× MIC of CIT-8 or water
# 556 (as a negative control) for 30 min at 37°C (180 rpm). After that, we washed the bacteria three times
# 557 with PBS and stored the pellet at -80°C. We isolated total RNA from the pellet and checked the
# 558 purity using the NanoPhotometer® spectrophotometer (Implen, CA, USA). We assessed RNA
# 559 integrity and concentration using the RNA Nano 6000 Assay Kit following manufacturer
# 560 instructions in a Bioanalyzer 2100 system (Agilent Technologies, CA, USA). We evaluated RNA
# 561 degradation and contamination on 1% agarose gels. To prepare libraries for transcriptome
# 562 sequencing, we used 1 µg RNA per sample as input material and generated sequencing libraries
# 563 using NEBNext® UltraTM RNA Library Prep Kit for Illumina® (NEB, MA, USA) following
# 564 manufacturer’s recommendations and added index codes to attribute sequences to each sample.
# 565 Briefly, we purified mRNA from total RNA using poly-T oligo-attached magnetic beads, followed
# 566 by fragmentation using divalent cations under elevated temperature in NEBNext First Strand
# 567 Synthesis Reaction Buffer (5×). To synthesize cDNA, we used random hexamer primers and M-
# 568 MuLV Reverse Transcriptase (RNase H-) to create the first strand, followed by DNA Polymerase
# 569 I and RNase H to create the second strand (23). The remaining overhangs were converted into
# 570 blunt ends using exonuclease/polymerase activities. We adenylated the 3’ ends of the DNA
# 571 fragments, and further ligated NEBNext Adaptors with hairpin loop structures to prepare for
# 572 hybridization. To select cDNA fragments of preferred length (150-200 bp), we purified the whole
# 573 library fragments with AMPure XP system (Beckman Coulter, CA, USA). Next, to the size-
# 574 selected, adaptor ligated cDNA, we added 3 µl USER Enzyme (NEB, MA, USA) at 37°C for 15
# 575 min followed by 5 min at 95°C before carrying out the polymerase chain reaction (PCR). We
# 576 performed the PCR with Phusion High-Fidelity DNA polymerase, Universal PCR primers, and
# 577 Index (X) Primer. Finally, we purified the PCR products with an AMPure XP system (Beckman
# 578 Coulter, CA, USA) and library quality was assessed on the Agilent Bioanalyzer 2100 system
# 579 (Agilent Technologies, CA, USA). […]
substance,measurement,setting,value
H-GLFKVIKKLLKVI-NH2 [CIT-8],Time to complete eradication of MRSA persister cells,[1],≤ 30 min
same,Time to eradication of exponential and VRSA persister cells,[2],≤ 120 min
same,SYTOX Green fluorescence (membrane permeation),S. aureus MW2 membrane,significantly increased fluorescence levels
same,Downregulation of tRNAGln,S. aureus MW2,8.5 fold
same,Downregulation of tRNAarg,S. aureus MW2,7.7 fold
same,Downregulation of tRNAcys,S. aureus MW2,6.8 fold
same,Downregulation of tRNAser,S. aureus MW2,8.4 fold
same,Upregulation of pdxS,S. aureus MW2,5.3 fold
same,Upregulation of purH,S. aureus MW2,3.6 fold
same,Upregulation of purL,S. aureus MW2,5.2 fold
same,Upregulation of purQ,S. aureus MW2,5.0 fold
same,Upregulation of purS,S. aureus MW2,5.0 fold
same,Number of genes downregulated by at least 2-fold,S. aureus MW2; P < 0.05,267 genes
same,Number of genes upregulated by more than 2-fold,S. aureus MW2; P < 0.05,179 genes
